# Laboratory results from patent US8617563B2, “Antichlamydial agents” (Duke University, priority 2011, dated 2013).
# Entries after “also recorded” stand apart in the source; their conditions may differ. Where no end group is shown, it is not given here.
# Key:
# Caspase-1 = Caspase-1 activity in infected cells (FLICA, flow cytometry); type: cell-based, human; settings: fluorescently labeled caspase-1 substrate
# Experimental: FIG. 13 depicts (A) that Caspase-1 inhibitors block Chlamydia-mediated cell death. Infected cells were treated with the Caspase-1 inhibitor Ac-YVAD-CMK at 2 hpi, and increasing concentrations of CPAF inhibitor added at 12 hpi. Cells were fixed and the percentage of cells with condensed nuclei determined at 24 hpi. (B) Enhanced Caspase-1 activation in infected cells lacking CPAF activity. Infected cells were labeled with a cell-permeable fluorescent substrate of Caspase-1 and treated with inhibitory peptides, and Caspase-1 activity was monitored by flow cytometry. (C) Caspase-1 and ASC are required for Chlamydia-mediated host cell death. […] Chlamydia replication and generation of IFUs in MLFs was assessed as in FIG. 9. […]
# Subsequent experiments tested whether CPAF inhibition led to the onset of apoptosis in infected cells. […] Apoptotic cells were identified with an AnnexinV-FLOUS Staining Kit (available from Roche) and activation of Caspase-1 was determined by labeling active Caspase-1 with a Carboxyfluorescein FLICA Detection Kit (available from Immunochemistry) and analyzed in a FACScanner (available from BD Biosciences). […] Consistent with result, Caspase-3 cleavage, another characteristic of apoptotic cell death, was not detected (FIG. 11C).
# CPAF = CPAF (Chlamydia trachomatis serovar D, UniProt O84866); type: cell-based, C. trachomatis; design: endogenous in cells; host or cells: HeLa cells infected with C. trachomatis LGV-L2 434/Bu (the bacteria make the protein and secrete it into the host cytosol); settings: L2-infected HeLa cells, peptide at 12 hpi, harvested 30 hpi; 2-10 μM for vimentin
# Experimental: Uninfected and HeLa cells pre-infected with L2 for 30 hrs were treated with inhibitory peptides and infected with EBs for 10 min Tarp translocation was indirectly visualized with an anti-phosphotyrosine antibody (A) and quantified by counting 50 separate cells (B). The stability of newly translocated Tarp was assessed by infecting cells as in (A) but with S^35-labeled EBs, followed by sequential immunoprecipitation of Tarp and MOMP and Phosphoimager analysis of precipitated material (C (I-IV)). […] IC50 values were determined by assessing CPAF cleavage of an Abz-tagged CPAF substrate (SEQ ID NO:9) by HPLC. Assays were performed the presence of increasing amount of inhibitors. […] Extracellular bacteria were determined. […] The number of internalized EBs was quantified per cell (H). […]
# Rabbits were immunized with recombinant GST fusions to Ct005, IncC, IncD, Tarp, and hexa-histidine-tagged CPAF produced in E. coli BL-21 (available from Stratagene) and purified by affinity chromatography. […] To assess CPAF cleavage of membrane proteins and EB proteins, purified membranes and soluble EB protein lysate were incubated with 6× his-CPAF at 37° C., and resulting product analyzed by immunoblot. […]
# To establish if CPAF was inhibited by SEQ ID NO:7 during infection, vimentin cleavage was assessed in C. trachomatis LGV-L2 434-infected HeLa cells after treatment with a range of concentrations (2-10 μM).
# Chain of CPAF (O84866 276-601): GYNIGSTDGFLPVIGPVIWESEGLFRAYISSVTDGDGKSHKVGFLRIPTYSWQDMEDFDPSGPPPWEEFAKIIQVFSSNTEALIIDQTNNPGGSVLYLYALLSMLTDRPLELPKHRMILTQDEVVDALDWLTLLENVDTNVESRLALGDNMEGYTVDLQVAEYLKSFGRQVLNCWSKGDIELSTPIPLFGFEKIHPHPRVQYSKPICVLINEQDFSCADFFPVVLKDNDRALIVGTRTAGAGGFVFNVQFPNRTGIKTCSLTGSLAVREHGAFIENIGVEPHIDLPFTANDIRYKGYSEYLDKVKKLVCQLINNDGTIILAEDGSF
# Chain of CPAF (O84866 24-234): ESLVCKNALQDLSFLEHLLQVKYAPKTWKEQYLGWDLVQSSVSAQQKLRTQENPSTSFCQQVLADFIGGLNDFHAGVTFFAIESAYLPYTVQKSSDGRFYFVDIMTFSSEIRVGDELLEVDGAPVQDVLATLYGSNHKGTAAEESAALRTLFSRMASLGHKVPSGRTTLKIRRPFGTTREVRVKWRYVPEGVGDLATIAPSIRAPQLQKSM
substance,measurement,setting,value
SLFYSPMVPHFWAELRNHYATSGLKRRRRRRRRR-NH2 [SEQ ID NO:7],Caspase-1 activity in infected cells,Caspase-1,significantly increased
same,Inhibition of CPAF-mediated cleavage of vimentin and Puma in infected cells,CPAF,markedly inhibited; also recorded: loss of vimentin processing; also recorded: Vimentin and Puma cleavage was inhibited
